Among the data in ChEMBL document CHEMBL1125334, “New nonpeptide angiotensin II receptor antagonists. 2. Synthesis, biological properties, and structure-activity relationships of 2-alkyl-4-(biphenylylmethoxy)quinoline derivatives” (J Med Chem, 1992) are ED50 and IC50 values, retold here.

SMILES strings stand for the structures.

Test [1] deals with Angiotensin II receptor (Rattus norvegicus) (UniProt P29089+P25095+P35351). The test can be described thus: (§1) Intravenous administration to conscious rats for inhibition of pressor response induced by infusion of AII (angiotensin-II). The format is functional, organism-based.
The target in test [2] is T1, Type-1 angiotensin II receptor (Cavia porcellus, UniProt Q9WV26).
T1 sequence (Q9WV26 whole entry): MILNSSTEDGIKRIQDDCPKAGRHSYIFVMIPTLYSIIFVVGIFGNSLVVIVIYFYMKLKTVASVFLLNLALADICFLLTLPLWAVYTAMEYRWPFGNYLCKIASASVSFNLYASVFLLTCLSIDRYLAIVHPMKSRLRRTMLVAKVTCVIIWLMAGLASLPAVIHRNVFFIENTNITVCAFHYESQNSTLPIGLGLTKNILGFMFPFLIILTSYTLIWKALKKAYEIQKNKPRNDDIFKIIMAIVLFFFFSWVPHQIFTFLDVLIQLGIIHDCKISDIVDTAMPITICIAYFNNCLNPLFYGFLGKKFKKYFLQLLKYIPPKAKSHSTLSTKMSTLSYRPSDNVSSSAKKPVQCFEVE
The test can be described thus: In vitro inhibition of the specific binding of [125I]angiotensin II to a guinea pig adrenal membrane preparation.

The next test deals with Rattus norvegicus. Described as §1. The format is functional.

For `CCc1cc(OCc2ccc(-c3ccccc3-c3nn[nH]n3)cc2)c2ccc(Cl)cc2n1`, in test [1], the ED50 was over 5 mg/kg. In test [2], this compound came in with an IC50 of 160 nM. The compound `CCCc1cc(OCc2ccc(-c3ccccc3C(=O)O)cc2)c2ccccc2n1` returned an IC50 in test [2] of 600 nM. In turn, `CCCCc1nc(Cl)c(CO)n1Cc1ccc(-c2ccccc2-c2nnn[nH]2)cc1` displayed an ED50 in test [1] of 0.65 mg/kg. In test [1], `CCc1cc(OCc2ccc(-c3ccccc3-c3nn[nH]n3)cc2)c2cc(C#N)ccc2n1` gave an ED50 of over 5 mg/kg.

With `CCc1cc(OCc2ccc(-c3ccccc3-c3nnn[nH]3)cc2)c2ccc(OC)cc2n1`, in test [2], the IC50 was 220 nM. The compound `CCc1cc(OCc2ccc(-c3ccccc3-c3nn[nH]n3)cc2)c2ccc(C)cc2n1` gave an ED50 in test [1] of over 5 mg/kg. The compound further yielded an IC50 in test [2] of 140 nM. `CCc1cc(OCc2ccc(-c3ccccc3-c3nn[nH]n3)cc2)c2cc(OC(C)C)ccc2n1`: the ED50 in test [1] was found to be 0.18 mg/kg.

For the compound `Cc1cc(OCc2ccc(-c3ccccc3C(=O)O)cc2)c2ccccc2n1`, the IC50 in test [2] is 180 nM. For the compound `CCCCc1nc(Cl)c(CO)n1Cc1ccc(-c2ccccc2-c2nn[nH]n2)cc1` [LOSARTAN POTASSIUM], the IC50 in test [2] is 18 nM.

In the case of `c1ccc(-c2nnn[nH]2)c(-c2ccc(COc3ccnc4ccccc34)cc2)c1`, the IC50 in test [2] is 6300 nM. In turn, `CCc1cc(OCc2ccc(-c3ccccc3-c3nn[nH]n3)cc2)c2ccc(C#N)cc2n1` gave an ED50 in test [1] of over 5 mg/kg. The IC50 in test [2] amounted to 460 nM. `Cc1cc(CCc2ccc(-c3ccccc3-c3nnn[nH]3)cc2)c2ccccc2n1` returned an IC50 in test [2] of 270 nM. The compound `CCc1cc(OCc2ccc(-c3ccccc3-c3nn[nH]n3)cc2)c2cccc(OC)c2n1` displayed a median effective dose (ED50) in test [1] of over 5 mg/kg. Besides, in test [2], the IC50 stood at 960 nM. In test [2], `CCCCc1nc(Cl)c(CO)n1Cc1ccc(-c2ccccc2C(=O)O)cc1` registered an IC50 of 430 nM.

In the case of `Cc1ccc2nc(C)cc(OCc3ccc(-c4ccccc4-c4nn[nH]n4)cc3)c2c1`, in test [1], the ED50 was over 5 mg/kg. This compound also had a half-maximal inhibitory concentration (IC50) in test [2] of 470 nM. Turning to `CCc1cc(OCc2ccc(-c3ccccc3-c3nn[nH]n3)cc2)c2cc(OCCF)ccc2n1`, the 50% effect level in test [1] (ED50) was put at a dose of 0.34 mg/kg. Besides, the IC50 in test [2] is 70 nM.

Regarding `CCc1cc(OCc2ccc(-c3ccccc3-c3nn[nH]n3)cc2)c2cccc(C(F)(F)F)c2n1`, in test [1], the ED50 is over 5 mg/kg. With `CCc1cc(OCc2ccc(-c3ccccc3-c3nnn[nH]3)cc2)c2cc(C(F)(F)F)ccc2n1`, the IC50 in test [2] was 860 nM. For the compound `CCc1cc(OCc2ccc(-c3ccccc3-c3nn[nH]n3)cc2)c2cc(C(F)(F)F)ccc2n1`, the ED50 in test [1] is over 5 mg/kg. Consider `CCc1cc(OCc2ccc(-c3ccccc3-c3nn[nH]n3)cc2)c2cc(OC)ccc2n1`, for which, in test [1], it took a dose of 0.32 mg/kg to reach the 50% effect level (ED50). The compound also registered an IC50 in test [2] of 22 nM. `CCc1cc(OCc2ccc(-c3ccccc3-c3nnn[nH]3)cc2)c2cc(C#N)ccc2n1` returned an IC50 in test [2] of 360 nM. For `CCc1cc(OCc2ccc(-c3ccccc3-c3nn[nH]n3)cc2)c2ccc(OC)cc2n1`, in test [1], the ED50 was over 5 mg/kg. For the compound `CCc1cc(OCc2ccc(-c3ccccc3-c3nnn[nH]3)cc2)c2c(C)cccc2n1`, the IC50 in test [2] was 13 nM. Take `CCc1cc(OCc2ccc(-c3ccccc3-c3nn[nH]n3)cc2)c2c(Cl)cccc2n1`: the ED50 in test [1] is over 5 mg/kg. The same measure, in the same setting: the value for `Cc1cc(OCc2ccc(-c3ccccc3-c3nn[nH]n3)cc2)c2ccccc2n1` was 0.73 mg/kg. For `CCc1cc(OCc2ccc(-c3ccccc3-c3nnn[nH]3)cc2)c2cc(OC(C)C)ccc2n1`, the IC50 in test [2] came to 26 nM. In the case of `CCc1cc(OCc2ccc(-c3ccccc3-c3nnn[nH]3)cc2)c2cccc(Cl)c2n1`, in test [2], the IC50 was found to be 140 nM. Compound `Cc1cc(OCc2ccc(-c3ccccc3-c3nn[nH]n3)cc2)c2cccc(C)c2n1` displayed an ED50 in test [1] of over 5 mg/kg. For the same compound, the IC50 in test [2] turned out to be 310 nM. `Cc1cc(SCc2ccc(-c3ccccc3-c3nn[nH]n3)cc2)c2ccccc2n1` displayed an IC50 in test [2] of 370 nM. Still for that read-out and setting: the value for `CCc1cc(OCc2ccc(-c3ccccc3-c3nnn[nH]3)cc2)c2c(C#N)cccc2n1` was 60 nM. Compound `CCc1cc(OCc2ccc(-c3ccccc3-c3nn[nH]n3)cc2)c2cc(C(=O)OC)ccc2n1` showed an ED50 in test [1] of 2.1 mg/kg. In test [2], this compound came in with an IC50 of 66 nM. With `CCc1cc(OCc2ccc(-c3ccccc3-c3nnn[nH]3)cc2)c2c(Cl)cccc2n1`, in test [2], the IC50 came out at 120 nM. For the compound `CCc1cc(OCc2ccc(-c3ccccc3-c3nnn[nH]3)cc2)c2ccccc2n1`, the IC50 in test [2] is 31 nM. Also, in the test on Rattus norvegicus, it took a dose of 1 mg/kg to reach the 50% effect level (ED50).

Take `CCc1cc(OCc2ccc(-c3ccccc3-c3nn[nH]n3)cc2)c2cc(OCC(F)(F)F)ccc2n1`: the 50% effect level in test [1] (ED50) was put at a dose of 0.71 mg/kg. The same compound gave an IC50 in test [2] of 26 nM. `Cc1nc2ccccc2c(OCc2ccc(-c3ccccc3-c3nnn[nH]3)cc2)c1C`: the IC50 in test [2] is 4600 nM.

What is called ED50 is the dose at which the effect has come halfway, by size or by number of responders. One may read the IC50 as the concentration needed to halve the response being measured. A lower IC50 goes with inhibition by little substance.
